Patent publication US20050112573A1, “Method of detecting toxic substance” (priority 2001, published 2005)

Tested on: yeast genes (level of expressed mRNA)
Assay: DNA chip analysis of expressed mRNA of yeast genes after 2 h culture with a toxic chemical substance
Format: cell-based, Saccharomyces cerevisiae S288C
Settings: for The level of expressed mRNA in the presence of chemical substance/ (ratio to absence of chemical substance): stress protein genes, DNA chip
Method: Yeast (Saccharomyces cerevtisiae S288C (α SUC2mal mel gap2 CUP1)) were cultured at 25° C. on YPD medium (yeast extract 1%, polypepton 2%, glucose 2%). One of toxic chemical substances was added to the cell at logarithmic growth phase, and the cell was further cultured for two hours. Cell was cultured without any chemical substance in the same condition, and was used as control. Concentrations of the chemical substances were defined to inhibit the growth of the yeast but not lead to death.
After the completion of cultivation, the culture was centrifuged to collect the cells. To the cells, sodium acetate buffer (50 mM sodium acetate, 10 mM EDTA, 1% SDS) was added, and the mixture was shaken at 65° C. for five minutes, followed by returning to room temperature, and obtaining the supernatant, which procedure was repeated two times. To the supernatant, ½ amount of a solution of phenol/chloroform was added, and the mixture was centrifuged to give a supernatant, which was added with an equal amount of chloroform, and the mixture was centrifuged to give a supernatant. To the supernatant, an equal amount of isopropanol containing 0.3 M sodium acetate was added, and the mixture was allowed to stand at room temperature for 30 minutes, after which the mixture was centrifuged to give a sediment of the whole RNAs. Seventy % ethanol was added to the sediment, and the mixture was again centrifuged to give a sediment, which was then dried and dissolved in water. mRNA was isolated from the whole RNAs as followings. In view of the fact that a poly A chain is attached to the 3′ terminus of mRNA, a polynucleotide having a poly T structure which was immobilized on the surface of latex beads was used to trap the mRNA, and then the mRNA was washed and eluted with spine column (Oligotex-dT30<Super>mRNA Purification Kit, Takara). Reverse transcription of the mRNA was conducted with a reverse transcriptase (Super Script II Reverse Transcriptase; catalogue No. 18064-014, GibcoBRL) using fluorescence-labeled nucleotides to give cDNAs that were introduced with Cy3-dUTP or Cy5-dUTP during the reverse transcription.
The labeled cDNAs were dissolved in TE buffer (10 mM Tris-HCl/1 mM EDTA, pH8.0), and the solution was dropped on the DNA chip containing the whole genes of yeast (DNA Chip Research Inc. Japan) so that the cDNAs were hybridized on the DNA chip at 65° C. for over 12 hours. The fluoresces intensity of the DNA chip was read with a scanner, and the ratio relative to the fluorescence intensity resulting from the absence of chemical substance was estimated as the following, which is shown in Tables 1 to 9: [formula]
In the Tables, “Intensity” indicated in the rightmost column is a value of the level of expressed mRNA of each gene in control cells as divided by the average level of the expressions of the whole genes.

## CCCCC[C@H](O)CC(=O)CCc1ccc(O)c(OC)c1 [(13), gingerol]
Yeast gene YIL140W
  The level of expressed mRNA in the presence of chemical substance/The level of expressed mRNA in the absence of chemical substance: 0.5
Yeast gene YJL070C, ratio of DNA chip fluorescence intensity to that without chemical substance
  The level of expressed mRNA in the presence of chemical substance/ (in its absence), gene YJL070C: 1.8
Yeast gene YJL073W
  The level of expressed mRNA in the presence of chemical substance/The level of expressed mRNA in the absence of chemical substance: 1.6
Yeast gene YJL089W
  The level of expressed mRNA in the presence of chemical substance/The level of expressed mRNA in the absence of chemical substance: 1.8
Yeast gene YJL096W, mitochondria-located protein genes, 2 h culture with chemical
  The level of expressed mRNA in the presence of chemical substance/ (ratio to absence), gene YJL096W: 0.7
Yeast gene YJL116C
  The level of expressed mRNA in the presence of chemical substance/The level of expressed mRNA in the absence of chemical substance: 4.3
Yeast gene YJL158C
  The level of expressed mRNA in the presence of chemical substance/ (ratio to absence of chemical substance): 0.4
Yeast gene YJL167W, ratio of DNA chip fluorescence intensity to that without chemical substance
  The level of expressed mRNA in the presence of chemical substance/ (in its absence), gene YJL167W: 0.9
Yeast gene YJL180C, mitochondria-located protein genes, 2 h culture with chemical
  The level of expressed mRNA in the presence of chemical substance/ (ratio to absence), gene YJL180C: 1.2
Yeast gene YJL216C, ratio of DNA chip fluorescence intensity to that without chemical substance
  The level of expressed mRNA in the presence of chemical substance/ (in its absence), gene YJL216C: 1.1
Yeast gene YJR004C
  The level of expressed mRNA in the presence of chemical substance/The level of expressed mRNA in the absence of chemical substance: 0.3
Yeast gene YJR086W
  The level of expressed mRNA in the presence of chemical substance/The level of expressed mRNA in the absence of chemical substance: 0.9
Yeast gene YJR090C
  The level of expressed mRNA in the presence of chemical substance/ (ratio to absence of chemical substance): 2.2
Yeast gene YKL008C
  The level of expressed mRNA in the presence of chemical substance/The level of expressed mRNA in the absence of chemical substance: 1.7
Yeast gene YKL013C
  The level of expressed mRNA in the presence of chemical substance/The level of expressed mRNA in the absence of chemical substance: 1.3
Yeast gene YKL039W
  The level of expressed mRNA in the presence of chemical substance/The level of expressed mRNA in the absence of chemical substance: 1.9
Yeast gene YKL041W
  The level of expressed mRNA in the presence of chemical substance/The level of expressed mRNA in the absence of chemical substance: 1.3
Yeast gene YKL096W
  The level of expressed mRNA in the presence of chemical substance/The level of expressed mRNA in the absence of chemical substance: 0.1
Yeast gene YKL164C
  The level of expressed mRNA in the presence of chemical substance/ (ratio to absence of chemical substance): 0.9
Yeast gene YKL165C
  The level of expressed mRNA in the presence of chemical substance/The level of expressed mRNA in the absence of chemical substance: 3.2
Yeast gene YKL193C
  The level of expressed mRNA in the presence of chemical substance/The level of expressed mRNA in the absence of chemical substance: 2.1
Yeast gene YKR009C, ratio of DNA chip fluorescence intensity to that without chemical substance
  The level of expressed mRNA in the presence of chemical substance/ (in its absence), gene YKR009C: 1.8
Yeast gene YKR034W, ratio of DNA chip fluorescence intensity to that without chemical substance
  The level of expressed mRNA in the presence of chemical substance/ (in its absence), gene YKR034W: 1.2
Yeast gene YKR053C
  The level of expressed mRNA in the presence of chemical substance/ (ratio to absence of chemical substance): 0.7
Yeast gene YKR058W, energy system protein genes, 2 h culture with the chemical, ratio to control without chemical
  The level of expressed mRNA in the presence of chemical substance/ in its absence, gene YKR058W: 0.7
Yeast gene YLR006C, ratio of DNA chip fluorescence intensity to that without chemical substance
  The level of expressed mRNA in the presence of chemical substance/ (in its absence), gene YLR006C: 0.8
Yeast gene YLR006C
  The level of expressed mRNA in the presence of chemical substance/ (ratio to absence of chemical substance): 0.8
Yeast gene YLR120C
  The level of expressed mRNA in the presence of chemical substance/The level of expressed mRNA in the absence of chemical substance: 4.8
Yeast gene YLR136C
  The level of expressed mRNA in the presence of chemical substance/The level of expressed mRNA in the absence of chemical substance: 2.9
Yeast gene YLR178C
  The level of expressed mRNA in the presence of chemical substance/The level of expressed mRNA in the absence of chemical substance: 7.5
Yeast gene YLR250W
  The level of expressed mRNA in the presence of chemical substance/The level of expressed mRNA in the absence of chemical substance: 1.2
Yeast gene YLR295C, energy system protein genes, 2 h culture with the chemical, ratio to control without chemical
  The level of expressed mRNA in the presence of chemical substance/ in its absence, gene YLR295C: 0.8
Yeast gene YLR295C, mitochondria-located protein genes, 2 h culture with chemical
  The level of expressed mRNA in the presence of chemical substance/ (ratio to absence), gene YLR295C: 0.8
Yeast gene YLR327C
  The level of expressed mRNA in the presence of chemical substance/The level of expressed mRNA in the absence of chemical substance: 2.8
Yeast gene YLR351C, ratio of DNA chip fluorescence intensity to that without chemical substance
  The level of expressed mRNA in the presence of chemical substance/ (in its absence), gene YLR351C: 0.9
Yeast gene YLR356W
  The level of expressed mRNA in the presence of chemical substance/The level of expressed mRNA in the absence of chemical substance: 2.5
Yeast gene YLR362W
  The level of expressed mRNA in the presence of chemical substance/The level of expressed mRNA in the absence of chemical substance: 2.4
Yeast gene YLR375W, ratio of DNA chip fluorescence intensity to that without chemical substance
  The level of expressed mRNA in the presence of chemical substance/ (in its absence), gene YLR375W: 1.6
Yeast gene YLR391W
  The level of expressed mRNA in the presence of chemical substance/The level of expressed mRNA in the absence of chemical substance: 0.9
Yeast gene YLR429W
  The level of expressed mRNA in the presence of chemical substance/The level of expressed mRNA in the absence of chemical substance: 2.3
Yeast gene YML129C, energy system protein genes, 2 h culture with the chemical, ratio to control without chemical
  The level of expressed mRNA in the presence of chemical substance/ in its absence, gene YML129C: 1.0
Yeast gene YML129C, mitochondria-located protein genes, 2 h culture with chemical
  The level of expressed mRNA in the presence of chemical substance/ (ratio to absence), gene YML129C: 1.0
Yeast gene YMR004W
  The level of expressed mRNA in the presence of chemical substance/The level of expressed mRNA in the absence of chemical substance: 2.2
Yeast gene YMR023C, mitochondria-located protein genes, 2 h culture with chemical
  The level of expressed mRNA in the presence of chemical substance/ (ratio to absence), gene YMR023C: 1.1
Yeast gene YMR094W
  The level of expressed mRNA in the presence of chemical substance/The level of expressed mRNA in the absence of chemical substance: 1.4
Yeast gene YMR104C
  The level of expressed mRNA in the presence of chemical substance/The level of expressed mRNA in the absence of chemical substance: 1.5
Yeast gene YMR186W
  The level of expressed mRNA in the presence of chemical substance/ (ratio to absence of chemical substance): 2.4
Yeast gene YMR219W
  The level of expressed mRNA in the presence of chemical substance/The level of expressed mRNA in the absence of chemical substance: 2.1
Yeast gene YMR226C
  The level of expressed mRNA in the presence of chemical substance/The level of expressed mRNA in the absence of chemical substance: 1.6
Yeast gene YMR267W, energy system protein genes, 2 h culture with the chemical, ratio to control without chemical
  The level of expressed mRNA in the presence of chemical substance/ in its absence, gene YMR267W: 0.7
Yeast gene YMR267W, mitochondria-located protein genes, 2 h culture with chemical
  The level of expressed mRNA in the presence of chemical substance/ (ratio to absence), gene YMR267W: 0.7
Yeast gene YMR267W, ratio of DNA chip fluorescence intensity to that without chemical substance
  The level of expressed mRNA in the presence of chemical substance/ in its absence, gene YMR267W: 0.7
Yeast gene YMR275C
  The level of expressed mRNA in the presence of chemical substance/The level of expressed mRNA in the absence of chemical substance: 2.1
Yeast gene YMR276W
  The level of expressed mRNA in the presence of chemical substance/The level of expressed mRNA in the absence of chemical substance: 1.9
Yeast gene YMR278W, ratio of DNA chip fluorescence intensity to that without chemical substance
  The level of expressed mRNA in the presence of chemical substance/ (in its absence), gene YMR278W: 2.5
Yeast gene YMR293C, ratio of DNA chip fluorescence intensity to that without chemical substance
  The level of expressed mRNA in the presence of chemical substance/ (in its absence), gene YMR293C: 0.8
Yeast gene YMR314W
  The level of expressed mRNA in the presence of chemical substance/The level of expressed mRNA in the absence of chemical substance: 2.6
